Experimental data published in patent US20160151406A1, “COMBINATION CANCER THERAPY WITH C-MET INHIBITORS AND SYNTHETIC OLIGONUCLEOTIDES” (Mirna Therapeutics, Inc., priority 2014, published 2016).
Read-outs that look alike come from different tables or passages of the source.

What was measured:
Type in all cases: cell-based
C3A HCC cells = assay: Single-agent cell proliferation (AlamarBlue), C3A; settings: Homo sapiens, 72 h, drug alone, proliferation 3 days post drug treatment
Description: (§1) Cell culture: HCC cells were maintained in EMEM medium with 10% fetal bovine serum, except Huh7 were maintained in DMEM. All cells were maintained at 37° C. in a humidified of 95% air and 5% CO2.
(§2) miR-Rx34 and tivantinib and EMD1214063 treatment: To determine the IC50 value of each drug alone, 2,000 cells per well were seeded in a 96-well plate format and treated with either tivantinib or miR-Rx34 as follows. (i) miR-Rx34 was reverse-transfected in triplicates in a serial dilution (0.03-30 nM) using RNAiMax lipofectamine. As controls, cells were also transfected with RNAiMax alone (mock). Cells were incubated with AlamarBlue (Invitrogen) 6 days post transfection to determine cellular proliferation. Proliferation data were normalized to mock-transfected cells. (ii) Tivantinib or EMD1214063, prepared as a 10 mM stock solution in dimethyl sulfoxide (DMSO), was added to cells 3 days after seeding at a final concentration ranging from 0.1 to 100 μM for tivantinib and 0.01 and 10 μM for EMD1214063. Solvent alone (1% final DMSO) was added to cells in separate wells as a control. Three days thereafter, cellular proliferation was measured by AlamarBlue and normalized to the solvent control.
(§3) Statistical analysis: Statistical analysis was done using the Excel (Microsoft) and Graphpad software. Averages and standard deviations were calculated from triplicate experiments. […]

SK-Hep1 HCC cells = assay: Single-agent cell proliferation (AlamarBlue), SK-Hep1; settings: Homo sapiens, 72 h, drug alone, proliferation 3 days post drug treatment, read-out: EMD1214063 IC50
Description: as §1, §2, §3

Hep3b HCC cells = assay: Single-agent cell proliferation (AlamarBlue), Hep3b; settings: Homo sapiens, 72 h, drug alone, proliferation 3 days post drug treatment, read-out: Tivantinib IC50
Description: as §1, §2, §3

Huh7 HCC cells = assay: Single-agent cell proliferation (AlamarBlue), Huh7; settings: Homo sapiens, Huh-7, 72 h, drug alone, proliferation 3 days post drug treatment, read-out: Tivantinib IC50
Description: as §1, §2, §3

HepG2 HCC cells = assay: Single-agent cell proliferation (AlamarBlue), HepG2; settings: Homo sapiens, 72 h, drug alone, proliferation 3 days post drug treatment, read-out: Tivantinib IC50
Description: as §1, §2, §3

IC50 (C3A HCC cells; read-out: EMD1214063 IC50) [µM] | IC50 (SK-Hep1 HCC cells) [µM] | IC50 (Hep3b HCC cells) [µM] | IC50 (Huh7 HCC cells) [µM] | IC50 (C3A HCC cells; read-out: Tivantinib IC50) [µM] | IC50 (HepG2 HCC cells) [µM] | SMILES
7 | 6.7 |  |  |  |  | CN1CCC(COc2cnc(-c3cccc(Cn4nc(-c5cccc(C#N)c5)ccc4=O)c3)nc2)CC1 [EMD1214063, 3-(1-(3-(5-((1-methylpiperidin-4-yl)methoxy)pyrimidin-2-yl)benzyl)-1,6-dihydro-6-oxopyridazin-3-yl)benzonitrile]
 |  | 4.63 to 18.6 | 1.5 to 3.32 | 2.3 to 7.42 | 8.99 to 25 | O=C1NC(=O)[C@@H](c2cn3c4c(cccc24)CCC3)[C@@H]1c1c[nH]c2ccccc12 [Tivantinib, (3R,4R)-3-(5,6-Dihydro-4H-pyrrolo[3,2,1-ij]quinolin-1-yl)-4-(1H-indol-3-yl)-2,5-pyrrolidinedione]
